# In patent US20250368686A1, “PEPTIDE DRUGS FOR S[…] D[…] BLOCKING HOMO- AND HETERO-DIMERIZATION OF OPIOID RECEPTORS” (OKINAWA INSTITUTE OF SCIENCE AND TECHNOLOGY SCHOOL …, priority 2022, published 2025):
# Where a name gives a salt, the structure may show the parent alone. Read-outs that look alike come from different tables or passages of the source. Where no end group is shown, it is not given here.
# What was measured:
# [1] = molecular target: T1, DOR (Rattus norvegicus, UniProt P33533); assay type: cell-based; set-up: fluorescent tag protein (not specified for this assay); expressed in transfected cells; host or cells: CHO-K1 (D cells, MD cells); settings: for DOR internalisation, effect of agonist: 0.5 μM agonist, D cells and MD cells
# [2] = molecular target: T1, DOR; assay type: cell-based; set-up: expressed in transfected cells; host or cells: CHO-K1 (A11, A14); T24 (A17); CHO-K1 stably expressing Gqi5 (A20); settings: T24 cells, addition alone
# [3] = molecular target: T1, DOR; assay type: cell-based; set-up: expressed in transfected cells; host or cells: CHO-K1 (A11, A14); T24 (A17); CHO-K1 stably expressing Gqi5 (A20); settings: CHO-K1 cells, addition alone
# [4] = molecular target: T2, MOR (Rattus norvegicus, UniProt P33535); assay type: cell-based; set-up: fluorescent tag protein (not specified for this assay); expressed in transfected cells; host or cells: CHO-K1 (M cells, MD cells); for Ca2+ mobilisation CHO-K1 stably expressing Gqi5; settings: 0.5 μM agonist; for MOR internalisation: 60-min observations
# [5] = molecular target: T3, DOR and MOR (DM) heterodimers (Rattus norvegicus, UniProt P33535); test: DM heterodimerisation, two-colour single-molecule imaging in CHO-K1 cells (colocalisation index, heterodimer lifetime); assay type: cell-based; settings: for DM colocalisation, competition by expressed SNAPf-tagged TM peptides: CHO-K1 cells expressing DOR-mGFP, MOR-Halo and the TM peptide
# T3 construct: expressed in transfected cells; host or cells: CHO-K1 cells stably co-expressing DOR and MOR
# [6] = test system: T24 cells; test: LDH cytotoxicity assay in T24 cells; assay type: cell-based, human; settings: 48-h exposure, 50, 100 and 200 μM
# Method: (§1) Cytotoxicity was measured by subtracting LDH content in remaining viable cells from total LDH in untreated controls.
# [7] = test system: hippocampal neurons; test: LDH cytotoxicity assay in primary culture of hippocampal neurons; assay type: cell-based; settings: hippocampal neurons DIV8, DIV12, DIV14; 48, 96 and 144-hour exposures, 100 μM
# Method: as §1
# Treatments of neurons with Trition-100 (1%) and DMSO (10%) for 48 h were used as positive controls.
# [8] = molecular target: T2, MOR; assay type: cell-based; set-up: fluorescent tag protein (not specified for this assay); expressed in transfected cells; host or cells: CHO-K1 (M cells, MD cells); for Ca2+ mobilisation CHO-K1 stably expressing Gqi5
# [9] = molecular target: T2, MOR; assay type: cell-based; set-up: expressed in transfected cells; host or cells: CHO-K1 (A10, A13); T24 (A16); CHO-K1 stably expressing Gqi5 (A19); settings: T24 cells, addition alone
# [10] = test system: MOR; assay type: cell-based, rat; settings: D- and K-cells
# [11] = molecular target: T2, MOR; assay type: cell-based; set-up: expressed in transfected cells; host or cells: CHO-K1 (A10, A13); T24 (A16); CHO-K1 stably expressing Gqi5 (A19); settings: CHO-K1 cells, addition alone
# T1 sequence (P33533 whole entry): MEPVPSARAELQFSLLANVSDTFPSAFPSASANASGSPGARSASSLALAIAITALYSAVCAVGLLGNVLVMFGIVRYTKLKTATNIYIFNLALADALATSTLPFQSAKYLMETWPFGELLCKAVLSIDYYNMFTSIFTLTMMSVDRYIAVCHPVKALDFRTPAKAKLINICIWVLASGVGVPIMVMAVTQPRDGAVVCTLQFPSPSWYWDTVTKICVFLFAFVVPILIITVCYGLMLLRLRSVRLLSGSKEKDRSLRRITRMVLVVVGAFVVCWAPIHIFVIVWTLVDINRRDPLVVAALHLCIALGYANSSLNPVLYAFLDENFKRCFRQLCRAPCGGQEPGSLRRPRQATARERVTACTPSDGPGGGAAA
# T3 sequence (P33535 whole entry, one chain of several): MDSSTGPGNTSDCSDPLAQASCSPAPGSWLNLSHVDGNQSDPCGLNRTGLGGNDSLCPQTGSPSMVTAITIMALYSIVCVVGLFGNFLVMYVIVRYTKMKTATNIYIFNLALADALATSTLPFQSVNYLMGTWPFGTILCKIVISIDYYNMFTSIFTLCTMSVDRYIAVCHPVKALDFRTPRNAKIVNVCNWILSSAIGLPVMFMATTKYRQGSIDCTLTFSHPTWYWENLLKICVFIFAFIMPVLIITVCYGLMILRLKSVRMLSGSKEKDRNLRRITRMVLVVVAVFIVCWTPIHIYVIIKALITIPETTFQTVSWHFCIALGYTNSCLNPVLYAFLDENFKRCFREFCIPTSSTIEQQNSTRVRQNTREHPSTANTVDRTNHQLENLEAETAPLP
# T2 sequence (P33535 whole entry): as the sequence (P33535 whole entry, one chain of several) above
compound,measurement,setting,value
C=CCN1C[C@H](C)N([C@H](c2ccc(C(=O)N(CC)CC)cc2)c2cccc(OC)c2)C[C@H]1C [SNC-80],"DOR internalisation, effect of agonist",[1],induced dramatic DOR internalisation
same,Fraction of internalized molecules,[2],56.5 ± 1.9 %
same,Residency time of internalized molecules,[2],8.9 ± 1.0 min
same,Fraction of internalized molecules,[3],61.6 ± 1.7 %
same,Residency time of internalized molecules,[3],10.8 ± 0.9 min
same,"MOR internalisation, effect of agonist",[4]; M cells and MD cells,induced
CN1CC[C@]23c4c5ccc(O)c4O[C@H]2[C@@H](O)C=C[C@H]3[C@H]1C5 [morphine],"DOR internalisation, effect of agonist",[1],hardly affected
"MOR's TM1: MOR's TM1 (aa71-94) conjugated with the SNAPf tag, expressed in cells (IMALYSIVCVVGLFGNFLVMYVIV; also: conjugated with SNAPf tag)","DM colocalisation, competition by expressed SNAPf-tagged TM peptides",[5],lowered the DM colocalisation
SDTFPSAFPSASANASGSPGARS [Dpep(20-42)DM],cytotoxicity (LDH),[6],no toxicity
same,cytotoxicity (LDH),[7],little toxicity
LSHVDGNQSDPCGLNRTGLGGNDSLCPQTG [Mpep(32-61)MD],DM colocalisation index,"[5]; soluble peptides, 10 μM final, added to cells stably co-expressing WT-DOR and MOR",largest reductions
"MOR's N-term+TM1: aa53-99 sequence of MOR conjugated with the SNAPf tag, expressed in cells (NDSLCPQTGSPSMVTAITIMALYSIVCVVGLFGNFLVMYVIVRYTKM; cysteine pairing not given here; also: conjugated with SNAPf tag)","DM colocalisation, competition by expressed SNAPf-tagged TM peptides",[5],competes with DM dimers more effectively
"C[C@@H](NC(=O)[C@@H](N)Cc1ccc(O)cc1)C(=O)NCC(=O)N(C)[C@@H](Cc1ccccc1)C(=O)NCCO [DAMGO, [D-Ala^2, N-Mc-Phet, Gly^5-ol]-enkephalin acetate salt]",intracellular Ca2+ mobilisation,[8]; M-cells,induced
same,intracellular Ca2+ mobilisation,"[8]; MD-cells, compared with M-cells",greatly enhanced
same,Fraction of internalized molecules,[9],26.3 ± 1.1 %
same,Residency time of internalized molecules,[9],6.5 ± 1.2 min
same,DOR internalisation,"[1]; MD cells, 0.5 μM MOR agonist, 4.3% without DAMGO addition",13.3%
same,intracellular Ca2+ mobilisation,[10],not
same,MOR internalisation,[4]; M cells,31.8%
same,MOR internalisation,[4]; MD cells,51.1%
same,Fraction of internalized molecules,[11],28.1 ± 1.7 %
same,Residency time of internalized molecules,[11],11.3 ± 1.9 min
same,"DM heterodimer lifetime, effect of agonist","[5]; 0.5 μM agonist, within 5 min after addition",prolonged
same,"DM colocalisation index, effect of agonist","[5]; 0.5 μM agonist, within 5 min after addition, agonist-bound MOR with DOR",higher
